Results: ChEMBL document CHEMBL1135119, “Solid-phase synthesis of FKBP12 inhibitors: N-sulfonyl and N-carbamoylprolyl/pipecolyl amides” (Bioorg Med Chem Lett, 2002)

How the values were obtained:
Mus musculus = assay: Recovery of TH-immunostaining in […]-treated mice by post-MPTP treatment at a peroral dose of 10 mg/kg; type: functional, organism-based; set-up: dose 10 mg/kg
[1] = target: Peptidyl-prolyl cis-trans isomerase FKBP1A (Homo sapiens, UniProt P62942); assay: Ability to inhibit peptidyl-prolyl isomerase (PPIase, or rotamase) activity of FK506 binding protein 12
Sequence of Peptidyl-prolyl cis-trans isomerase FKBP1A (P62942 whole entry): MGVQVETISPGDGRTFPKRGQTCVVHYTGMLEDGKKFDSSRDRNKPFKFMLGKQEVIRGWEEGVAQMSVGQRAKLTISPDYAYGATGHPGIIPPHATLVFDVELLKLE

Ki [1]	SMILES	Recovery (Mus musculus)
37 µM	O=C(NCCc1ccccc1)C1CCCN1S(=O)(=O)c1ccccc1 (centres undefined)	–
13 µM	O=C(NCCCc1ccccc1)C1CCCN1S(=O)(=O)CCc1ccccc1 (centres undefined)	–
1.5 µM	O=C(NCCc1ccccc1)C1CCCCN1S(=O)(=O)c1ccccc1 (centres undefined)	–
39 µM	O=C(NCc1ccccc1)C1CCCCN1S(=O)(=O)Cc1ccccc1 (centres undefined)	–
0.72 µM	O=C(NCCCc1ccccc1)C1CCCCN1S(=O)(=O)c1ccccc1 (centres undefined)	–
2.8 µM	O=C(NCCCc1ccccc1)[C@@H]1CCCN1S(=O)(=O)Cc1ccccc1	17%
> 50 µM	CCCCNC(=O)C1CCCN1S(=O)(=O)c1ccc(C)cc1 (centres undefined)	–
1.6 µM	CCc1ccc(S(=O)(=O)N2CCCCC2C(=O)NCCc2ccccc2)cc1 (centres undefined)	–
33 µM	O=C(NCc1ccccc1)C1CCCN1C(=O)Nc1ccccc1 (centres undefined)	–
7.6 µM	Cc1ccc(S(=O)(=O)N2CCCC2C(=O)NCCCc2ccccc2)cc1 (centres undefined)	–
22 µM	O=C(NCCc1ccccc1)C1CCCN1S(=O)(=O)/C=C/c1ccccc1 (centres undefined)	–
33 µM	Cc1ccc(S(=O)(=O)N2CCCC2C(=O)NCCc2ccccc2)cc1 (centres undefined)	–
> 50 µM	Cc1ccc(S(=O)(=O)N2CCCC2C(=O)NCc2ccccc2)cc1 (centres undefined)	–
2.5 µM	O=C(NCc1ccccc1)C1CCCCN1S(=O)(=O)c1ccccc1 (centres undefined)	–
22 µM	O=C(NCc1ccccc1)C1CCCN1S(=O)(=O)CCc1ccccc1 (centres undefined)	–
42 µM	CCCCNC(=O)C1CCCN1S(=O)(=O)CCc1ccccc1 (centres undefined)	–
4.7 µM	CCCCNC(=O)C1CCCCN1S(=O)(=O)c1ccccc1 (centres undefined)	–
> 50 µM	O=C(NCc1ccccc1)C1CCCN1C(=O)NCc1ccccc1 (centres undefined)	–
13 µM	O=C(NCCc1ccccc1)C1CCCCN1S(=O)(=O)Cc1ccccc1 (centres undefined)	–
> 50 µM	CCCCNC(=O)C1CCCN1S(=O)(=O)c1ccccc1 (centres undefined)	–
> 50 µM	CCc1ccccc1NC(=O)N1CCCC1C(=O)NCc1ccccc1 (centres undefined)	–
9.5 µM	O=C(NCCCc1ccccc1)C1CCCN1S(=O)(=O)c1ccccc1 (centres undefined)	–
> 50 µM	CCCCCCCCS(=O)(=O)N1CCCC1C(=O)NCc1ccccc1 (centres undefined)	–
> 50 µM	O=C(NCc1ccccc1)C1CCCN1S(=O)(=O)/C=C/c1ccccc1 (centres undefined)	–
3.9 µM	O=C(NCc1ccccc1)C1CCCCN1S(=O)(=O)/C=C/c1ccccc1 (centres undefined)	–
1.3 µM	O=C(NCCCc1ccccc1)C1CCCN1S(=O)(=O)/C=C/c1ccccc1 (centres undefined)	–
1.3 µM	CCc1ccc(S(=O)(=O)N2CCCCC2C(=O)NCc2ccccc2)cc1 (centres undefined)	–
32 µM	O=C(NCCc1ccccc1)C1CCCN1S(=O)(=O)CCc1ccccc1 (centres undefined)	–

The remaining lines, values behind:

SMILES	Ki [1]	Recovery (Mus musculus)
O=C(NCCCc1ccccc1)[C@@H]1CCCN1C(=O)NCc1ccccc1	4.2 µM	31%
O=C(NCCc1ccccc1)C1CCCN1C(=O)NC1CCCCC1 (centres undefined)	> 50 µM	–
CCCCNC(=O)C1CCCN1C(=O)NCc1ccccc1 (centres undefined)	> 50 µM	–
CCCCNC(=O)C1CCCCN1S(=O)(=O)Cc1ccccc1 (centres undefined)	> 50 µM	–
CCc1ccccc1NC(=O)N1CCCC1C(=O)NCCCc1ccccc1 (centres undefined)	> 50 µM	–
O=C(NCCCc1ccccc1)C1CCCCN1S(=O)(=O)/C=C/c1ccccc1 (centres undefined)	1.1 µM	–
CCC(C)(C)C(=O)C(=O)N1CCC[C@H]1C(=O)OCCCc1cccnc1	–	40%
O=C(NCCc1ccccc1)C1CCCN1C(=O)Nc1ccccc1 (centres undefined)	30 µM	–
CCCCNC(=O)C1CCCCN1S(=O)(=O)c1ccc(CC)cc1 (centres undefined)	1.2 µM	–
O=C(NCCCCc1ccccc1)[C@@H]1CCCCN1S(=O)(=O)Cc1ccccc1	–	37%
CCCCNC(=O)C1CCCN1C(=O)Nc1ccccc1CC (centres undefined)	> 50 µM	–
O=C(NCCCCc1ccccc1)[C@@H]1CCCCN1C(=O)NCc1ccccc1	1.6 µM	42%
CCCCCCCCS(=O)(=O)N1CCCC1C(=O)NCCc1ccccc1 (centres undefined)	> 50 µM	–
CCc1ccccc1NC(=O)N1CCCC1C(=O)NCCc1ccccc1 (centres undefined)	> 50 µM	–
O=C(NCCc1ccccc1)C1CCCN1C(=O)NCc1ccccc1 (centres undefined)	> 30 µM	–
O=C(NCc1ccccc1)C1CCCN1C(=O)NC1CCCCC1 (centres undefined)	> 50 µM	–
CCCCCCCCS(=O)(=O)N1CCCC1C(=O)NCCCc1ccccc1 (centres undefined)	5.4 µM	–
CCCCNC(=O)C1CCCCN1S(=O)(=O)/C=C/c1ccccc1 (centres undefined)	11 µM	–
O=C(NCCCc1ccccc1)C1CCCN1C(=O)NC1CCCCC1 (centres undefined)	> 33 µM	–
O=C(NCCc1ccccc1)C1CCCCN1S(=O)(=O)/C=C/c1ccccc1 (centres undefined)	2.4 µM	–
O=C(NCCCc1ccccc1)C1CCCN1C(=O)Nc1ccccc1 (centres undefined)	1.4 µM	–
O=C(NCCCc1ccccc1)C1CCCCN1S(=O)(=O)Cc1ccccc1 (centres undefined)	2.2 µM	–
CCCCNC(=O)C1CCCN1C(=O)NC1CCCCC1 (centres undefined)	> 50 µM	–
